Experimental data as given in ChEMBL document CHEMBL5244273, “Tuberculosis: An Overview of the Immunogenic Response, Disease Progression, and Medicinal Chemistry Efforts in the Last Decade toward the Development of Potential Drugs for Extensively Drug-Resistant Tuberculosis Strains” (J Med Chem, 2021).
In brackets after ≈: the same amount, converted by molar mass.

Assays:
[1] = system: Mycobacterium tuberculosis; test: Potentiation of ethionamide induced antibacterial activity against Mycobacterium tuberculosis H37Rv expressing GFP incubated for 5 days by fluorescence based analysis; type: functional, organism-based; conditions: 120 h
[2] = system: Mycobacterium tuberculosis; test: Antimycobacterial activity against Mycobacterium tuberculosis H37Rv infected in human THP-1 cells assessed as inhibition of bacterial growth; type: functional, organism-based
[3] = system: Mycobacterium tuberculosis; test: Antimycobacterial activity against Mycobacterium tuberculosis H37Rv assessed as inhibition of bacterial growth by resazurin dye based fluorescence analysis; type: functional

SMILES	EC50 [1]	IC50 [2]	MIC [3]
O=C(CCC(F)(F)F)N1CCC(F)(c2ccnc(C(F)(F)F)c2)CC1	< 150 nM	10 nM	–
O=C(CCC(F)(F)F)N1CCC(c2cncc(Cl)c2)C1 (configuration not stated)	< 150 nM	10 nM	–
O=C(CCCl)N1CCC2(CC1)CC(C(F)(F)F)=NO2	< 38 nM	50 nM	–
N#CC1=NOC2(CCN(C(=O)CCC(F)(F)F)CC2)C1	< 38 nM	50 nM	–
O=C(CCC(F)(F)F)N1CCC(c2cc(C(F)(F)F)ccn2)CC1	< 150 nM	10 nM	–
O=C(CCC(F)(F)F)N1CCC2(CC1)CC(F)=NO2	< 38 nM	50 nM	–
O=C(CCC(F)(F)F)N1CCC(c2ccc(F)cn2)CC1	< 150 nM	10 nM	–
O=C(CCC(F)(F)F)N1CC(C2CCCCC2)C1	< 10 nM	10 nM	–
O=C(CCC(F)(F)F)N1CCC2(CC1)CC(OCC(F)(F)F)=NO2	< 38 nM	50 nM	–
O=C(CCC(F)(F)F)N1CCC(c2ccnc(C(F)(F)F)c2)CC1	< 150 nM	10 nM	–
O=C(CCC(F)(F)F)N1CCC(c2cncc(F)c2)CC1	< 150 nM	10 nM	–
O=C(CCC(F)(F)F)N1CCC(F)(c2cncc(Cl)c2)CC1	< 150 nM	10 nM	–
O=C(CCC(F)(F)F)N1CCC2(CC1)CC(Br)=NO2	< 38 nM	50 nM	–
O=C(CCC(F)(F)F)N1CCC(c2cccc(Cl)n2)CC1	< 150 nM	10 nM	–
O=C(CCC(F)(F)F)N1CCC(c2cccc(F)n2)CC1	< 150 nM	10 nM	–
O=C(CCC(F)(F)F)N1CCC(F)(c2cccnc2)CC1	< 150 nM	10 nM	–
O=C(CCC(F)(F)F)N1CCC(c2cncc(Cl)c2)CC1	< 150 nM	10 nM	–
O=C(CCC(F)(F)F)N1CCC(c2ccc(F)nc2F)CC1	< 150 nM	10 nM	–
O=S(=O)(NCCO)c1ccc(-c2nnn(Cc3ccc(F)cc3)n2)cc1	–	–	0.1 µM (≈ 0.0377 µg/mL)
Cc1ccc(Cn2nnc(-c3ccc(S(=O)(=O)NC[C@@H](C)O)cc3)n2)nc1	–	–	0.1 µM (≈ 0.0388 µg/mL)
O=S(=O)(NCCO)c1ccc(-c2nnn(Cc3ccc(F)cn3)n2)c(F)c1F	–	–	0.1 µM (≈ 0.0414 µg/mL)
CC(C)COC1=NOC2(CCN(C(=O)CCC(F)(F)F)CC2)C1	< 38 nM	50 nM	–
CCCOC1=NOC2(CCN(C(=O)CCC(F)(F)F)CC2)C1	< 38 nM	50 nM	–
O=C(CCC(F)(F)F)N1CCC(c2ccc(F)nc2)CC1	< 150 nM	10 nM	–
N#Cc1ccc(Cn2nnc(-c3ccc(S(=O)(=O)NCCO)cc3)n2)cc1	–	–	0.1 µM (≈ 0.0384 µg/mL)
CCC1=NOC2(CCN(C(=O)CCC(F)(F)F)CC2)C1	< 38 nM	50 nM	–

SMILES	EC50 [1]	IC50 [2]	MIC [3]
O=S(=O)(NCCO)c1ccc(-c2nnn(Cc3ccc(OC(F)(F)F)cc3)n2)cc1	–	–	0.1 µM (≈ 0.0443 µg/mL)
O=S(=O)(NCCO)c1ccc(-c2nnn(Cc3ccc(C(F)F)cc3)n2)cc1	–	–	0.1 µM (≈ 0.0409 µg/mL)
O=S(=O)(NCCO)c1ccc(-c2nnn(Cc3ccncc3)n2)cc1	–	–	0.1 µM (≈ 0.036 µg/mL)
COc1cc(-c2nnn(Cc3ccc(C#N)cc3)n2)ccc1S(=O)(=O)NCC(N)=O	–	–	0.1 µM (≈ 0.0427 µg/mL)
O=S(=O)(NCCO)c1ccc(-c2nnn(Cc3ncc(F)cc3F)n2)cc1	–	–	0.1 µM (≈ 0.0396 µg/mL)
O=S(=O)(NCCO)c1ccc(-c2nnn(Cc3ccc(F)cn3)n2)c(F)c1	–	–	0.1 µM (≈ 0.0396 µg/mL)
O=C(CCC(F)(F)F)N1CCC(F)(c2ccccn2)CC1	< 150 nM	10 nM	–
COc1ccc(Cn2nnc(-c3ccc(S(=O)(=O)NCCO)cc3)n2)nc1	–	–	0.1 µM (≈ 0.039 µg/mL)
CNS(=O)(=O)c1ccc(-c2nnn(Cc3ccc(F)cc3)n2)cc1	–	–	0.1 µM (≈ 0.0347 µg/mL)
O=S(=O)(NCC(O)CO)c1ccc(-c2nnn(Cc3ccc(F)cc3)n2)cc1 (configuration not stated)	–	–	0.1 µM (≈ 0.0407 µg/mL)
O=S(=O)(NCCO)c1ccc(-c2nnn(Cc3ccc(F)cn3)n2)cc1	–	–	0.1 µM (≈ 0.0378 µg/mL)
O=C(CCC(F)(F)F)N1CC(c2cccc(Cl)c2)C1	< 10 nM	10 nM	–
O=C(CCC(F)(F)F)N1CCC(c2ccnc(Cl)c2)CC1	< 150 nM	10 nM	–
Cc1ccc(Cn2nnc(-c3ccc(S(=O)(=O)NCC(N)=O)cc3)n2)nc1	–	–	0.1 µM (≈ 0.0387 µg/mL)
Cc1nccc(Cn2nnc(-c3ccc(S(=O)(=O)NCCO)cc3)n2)n1	–	–	0.1 µM (≈ 0.0375 µg/mL)
Cc1cc(S(=O)(=O)NCCO)ccc1-c1nnn(Cc2ccc(F)cn2)n1	–	–	0.1 µM (≈ 0.0392 µg/mL)
Cc1cc(-c2nnn(CC3CCCCO3)n2)ccc1S(=O)(=O)NCCO (configuration not stated)	–	–	0.1 µM (≈ 0.0381 µg/mL)
Cc1cc(Cn2nnc(-c3ccc(S(=O)(=O)NCCO)cc3)n2)ccn1	–	–	0.1 µM (≈ 0.0374 µg/mL)
COc1cc(-c2nnn(Cc3ccncc3)n2)ccc1S(=O)(=O)NCC#N	–	–	0.1 µM (≈ 0.0385 µg/mL)
O=S(=O)(NCCO)c1ccc(-c2nnn(CC3CCOCC3)n2)cc1F	–	–	0.1 µM (≈ 0.0385 µg/mL)
O=C(CCC(F)(F)F)N1CCC(F)(c2cc(C(F)(F)F)ccn2)CC1	< 150 nM	10 nM	–
O=S(=O)(NCCO)c1ccc(-c2nnn(CC3CCCCO3)n2)c(F)c1 (configuration not stated)	–	–	0.1 µM (≈ 0.0385 µg/mL)
N#CCNS(=O)(=O)c1ccc(-c2cn(Cc3ccncc3)nn2)cc1	–	–	0.1 µM (≈ 0.0354 µg/mL)
C[C@@H](O)CNS(=O)(=O)c1ccc(-c2cn(Cc3ccc(F)cc3)nn2)cc1	–	–	0.1 µM (≈ 0.039 µg/mL)
N#CNS(=O)(=O)c1ccc(-c2nnn(Cc3ccc(F)cn3)n2)cc1	–	–	0.1 µM (≈ 0.0359 µg/mL)
O=S(=O)(NCCO)c1ccc(-c2nnn(Cc3cccnn3)n2)cc1	–	–	0.1 µM (≈ 0.0361 µg/mL)

SMILES	EC50 [1]	IC50 [2]	MIC [3]
O=S(=O)(NCCO)c1c(F)cc(-c2nnn(Cc3ccc(F)cn3)n2)cc1F	–	–	0.1 µM (≈ 0.0414 µg/mL)
O=S(=O)(NCCO)c1ccc(-c2nnn(CC3CCCCO3)n2)cc1F (configuration not stated)	–	–	0.1 µM (≈ 0.0385 µg/mL)
O=C(CCC(F)(F)F)N1CCC(F)(c2cncc(C(F)(F)F)c2)CC1	< 150 nM	10 nM	–
O=C(CCC(F)(F)F)N1CCC(F)(c2ccc(F)nc2)CC1	< 150 nM	10 nM	–
O=C(CCC(F)(F)F)N1CCC(c2cccc(C(F)(F)F)n2)CC1	< 150 nM	10 nM	–
COc1cc(-c2nnn(Cc3ccc(F)cc3)n2)ccc1S(=O)(=O)NCCO	–	–	0.1 µM (≈ 0.0407 µg/mL)
CCNS(=O)(=O)c1ccc(-c2nnn(Cc3ccncc3)n2)cc1	–	–	0.1 µM (≈ 0.0344 µg/mL)
Cc1cc(-c2nnn(Cc3ccc(F)cn3)n2)ccc1S(=O)(=O)NCCO	–	–	0.1 µM (≈ 0.0392 µg/mL)
O=S(=O)(NCCO)c1ccc(-c2nnn(CC3CCCCO3)n2)c(F)c1F (configuration not stated)	–	–	0.1 µM (≈ 0.0403 µg/mL)
NC(=O)CNS(=O)(=O)c1ccc(-c2nnn(Cc3ccc(F)cc3)n2)cc1	–	–	0.1 µM (≈ 0.039 µg/mL)
N#CCNS(=O)(=O)c1ccc(-c2nnn(CC3CCCCO3)n2)cc1 (configuration not stated)	–	–	0.1 µM (≈ 0.0362 µg/mL)
CNS(=O)(=O)c1ccc(-c2nnn(Cc3ccc(C#N)cc3)n2)cc1	–	–	0.1 µM (≈ 0.0354 µg/mL)
O=S(=O)(NCCO)c1c(F)cc(-c2nnn(CC3CCCCO3)n2)cc1F (configuration not stated)	–	–	0.1 µM (≈ 0.0403 µg/mL)
N#CCNS(=O)(=O)c1ccc(-c2nnn(Cc3cnccn3)n2)cc1	–	–	0.1 µM (≈ 0.0356 µg/mL)
CNS(=O)(=O)c1ccc(-c2nnn(Cc3ccncc3)n2)cc1	–	–	0.1 µM (≈ 0.033 µg/mL)
O=S(=O)(NCCO)c1ccc(-c2nnn(Cc3ccc(F)cn3)n2)cc1Cl	–	–	0.1 µM (≈ 0.0413 µg/mL)
N#CCNS(=O)(=O)c1ccc(-c2nnn(Cc3ccncn3)n2)cc1	–	–	0.1 µM (≈ 0.0356 µg/mL)
O=S(=O)(NCCO)c1ccc(-c2cn(Cc3ccc(F)cc3)nn2)cc1	–	–	0.1 µM (≈ 0.0376 µg/mL)
N#Cc1ccc(Cn2nnc(-c3ccc(S(=O)(=O)NCCO)cc3)n2)nc1	–	–	0.1 µM (≈ 0.0385 µg/mL)
COc1cc(-c2nnn(C(C)c3ccc(F)cc3)n2)ccc1S(=O)(=O)NCC(N)=O (configuration not stated)	–	–	0.1 µM (≈ 0.0434 µg/mL)
C[C@@H](O)CNS(=O)(=O)c1ccc(-c2nnn(Cc3ccc(F)cn3)n2)cc1	–	–	0.1 µM (≈ 0.0392 µg/mL)
COc1ccc(Cn2nnc(-c3ccc(S(=O)(=O)NCC(N)=O)cc3)n2)cc1	–	–	0.1 µM (≈ 0.0402 µg/mL)
COc1ccc(Cn2nnc(-c3ccc(S(=O)(=O)NCCO)c(OC)c3)n2)nc1	–	–	0.1 µM (≈ 0.042 µg/mL)
N#Cc1ccc(Cn2cc(-c3ccc(S(=O)(=O)NCCO)cc3)nn2)cc1	–	–	0.1 µM (≈ 0.0383 µg/mL)
Cc1ccc(Cn2nnc(-c3ccc(S(=O)(=O)NCCO)cc3)n2)cn1	–	–	0.1 µM (≈ 0.0374 µg/mL)
O=S(=O)(NC(CO)CO)c1ccc(-c2nnn(Cc3ccc(F)cc3)n2)cc1	–	–	0.1 µM (≈ 0.0407 µg/mL)

SMILES	EC50 [1]	IC50 [2]	MIC [3]
COc1ccc(Cn2nnc(-c3ccc(S(=O)(=O)NC[C@@H](C)O)cc3)n2)nc1	–	–	0.1 µM (≈ 0.0404 µg/mL)
COc1cnc(Cn2nnc(-c3ccc(S(=O)(=O)NCC#N)cc3)n2)cn1	–	–	0.1 µM (≈ 0.0386 µg/mL)
N#CCNS(=O)(=O)c1ccc(-c2cn(Cc3ccc(F)cn3)nn2)cc1	–	–	0.1 µM (≈ 0.0372 µg/mL)
NC(=O)CNS(=O)(=O)c1ccc(-c2cn(Cc3ccc(F)cc3)nn2)cc1	–	–	0.1 µM (≈ 0.0389 µg/mL)
O=S(=O)(NCCO)c1ccc(-c2nnn(Cc3ccc(Cl)cn3)n2)cc1	–	–	0.1 µM (≈ 0.0395 µg/mL)
NC(=O)CNS(=O)(=O)c1ccc(-c2nnn(CC3CCCCO3)n2)cc1 (configuration not stated)	–	–	0.1 µM (≈ 0.038 µg/mL)
O=S(=O)(NCCO)c1ccc(-c2nnn(Cc3ccc(Cl)cc3)n2)cc1	–	–	0.1 µM (≈ 0.0394 µg/mL)
CCOc1ccc(Cn2nnc(-c3ccc(S(=O)(=O)NCCO)cc3)n2)cc1	–	–	0.1 µM (≈ 0.0403 µg/mL)
O=S(=O)(NCCO)c1ccc(-c2nnn(CC3CCCCC3)n2)cc1	–	–	0.1 µM (≈ 0.0365 µg/mL)
O=S(=O)(NCCO)c1ccc(-c2nnn(Cc3ccc(F)cn3)n2)c(Cl)c1	–	–	0.1 µM (≈ 0.0413 µg/mL)
C[C@@H](O)CNS(=O)(=O)c1ccc(-c2nnn(CC3CCC(F)(F)CC3)n2)cc1	–	–	0.1 µM (≈ 0.0415 µg/mL)
NC(=O)CNS(=O)(=O)c1ccc(-c2nnn(Cc3ccncc3)n2)cc1	–	–	0.1 µM (≈ 0.0373 µg/mL)
Cc1ccc(Cn2nnc(-c3ccc(S(=O)(=O)NCCO)cc3)n2)nc1	–	–	0.1 µM (≈ 0.0374 µg/mL)
COc1cc(-c2nnn(Cc3ccncc3)n2)ccc1S(=O)(=O)NCCO	–	–	0.1 µM (≈ 0.039 µg/mL)
COc1cc(-c2nnn(Cc3ccncc3)n2)ccc1S(=O)(=O)NCC(N)=O	–	–	0.1 µM (≈ 0.0403 µg/mL)
COc1cc(-c2nnn(Cc3ccc(C#N)cn3)n2)ccc1S(=O)(=O)NCCO	–	–	0.1 µM (≈ 0.0415 µg/mL)
N#CCNS(=O)(=O)c1ccc(-c2nnn(Cc3ccc(F)cc3)n2)cc1	–	–	0.1 µM (≈ 0.0372 µg/mL)
O=S(=O)(NCCO)c1ccc(-c2nnn(Cc3ccncn3)n2)cc1	–	–	0.1 µM (≈ 0.0361 µg/mL)
O=S(=O)(NCCO)c1ccc(-c2cn(Cc3ccc(F)cn3)nn2)cc1	–	–	0.1 µM (≈ 0.0377 µg/mL)
COc1ccc(Cn2nnc(-c3ccc(S(=O)(=O)NCC#N)cc3)n2)cn1	–	–	0.1 µM (≈ 0.0385 µg/mL)
NC(=O)CNS(=O)(=O)c1ccc(-c2nnn(Cc3ccc(Cl)cn3)n2)cc1	–	–	0.1 µM (≈ 0.0408 µg/mL)
COC(=O)CNS(=O)(=O)c1ccc(-c2nnn(Cc3ccc(F)cc3)n2)cc1	–	–	0.1 µM (≈ 0.0405 µg/mL)
COc1ccc(Cn2nnc(-c3ccc(S(=O)(=O)NCCO)cc3)n2)cc1F	–	–	0.1 µM (≈ 0.0407 µg/mL)
Cc1cc(Cn2nnc(-c3ccc(S(=O)(=O)NCC(N)=O)cc3)n2)ccn1	–	–	0.1 µM (≈ 0.0387 µg/mL)
C[C@@H](O)CNS(=O)(=O)c1ccc(-c2nnn(Cc3ccc(F)cc3)n2)cc1	–	–	0.1 µM (≈ 0.0391 µg/mL)
